Measured values reported in US20240058347A1, “DOSAGES FOR HDAC TREATMENT WITH REDUCED SIDE EFFECTS” (VIRACTA THERAPEUTICS, INC., priority 2019, published 2024).
pIC50: −log10 of the molar value. Where two headings read alike, the source gives them in different places.

How the values were obtained:
[1] = biological target: HDAC2 (Homo sapiens, UniProt Q92769); assay: biochemical
Protocol: (§1) Briefly, all of the compounds are dissolved in DMSO. A series of dilutions of the compounds were prepared with 10% DMSO in HDAC assay buffer and 5 μl of the dilution was added to a 50 μl reaction so that the final concentration of DMSO is 1% in all of reactions. The compounds were pre-incubated in duplicate at RT for 1 hour in a mixture containing HDAC assay buffer, 5 μg BSA, HDAC enzyme (see Table 7) and a the particular HDACi. After 1 hour, the enzymatic reactions were initiated by the addition of HDAC substrate (BPS Bioscience) to a final concentration of 10 μM or 2 μM. The enzymatic reaction proceeded for 30 minutes at 37° C.
(§2) HDAC activity assays were performed in duplicates at each concentration. The fluorescent intensity data were analyzed using the computer software, Graphpad Prism. In the absence of the compound, the fluorescent intensity (Ft) in each data set was defined as 100% activity. In the absence of HDAC, the fluorescent intensity (Fb) in each data set was defined as 0% activity. The percent activity in the presence of each compound was calculated according to the following equation: % activity=(F−Fb)/(Ft−Fb), where F=the fluorescent intensity in the presence of the compound.
(§3) The values of % activity versus a series of compound concentrations were then plotted using non-linear regression analysis of Sigmoidal dose-response curve generated with the equation Y=B+(T−B)/1+10^((Log C50−X)×Hill Slope), where Y=percent activity, B=minimum percent activity, T=maximum percent activity, X=logarithm of compound and Hill Slope=slope factor or Hill coefficient. The IC50 value was determined by the concentration causing a half-maximal percent activity.

[2] = biological target: HDAC3/NCOR2 (Homo sapiens, UniProt O15379); assay: biochemical
Protocol: as §1, §2, §3

[3] = biological target: T1, HDAC6 (Homo sapiens, UniProt Q9UBN7); assay: biochemical
T1 sequence (Q9UBN7 1-1215): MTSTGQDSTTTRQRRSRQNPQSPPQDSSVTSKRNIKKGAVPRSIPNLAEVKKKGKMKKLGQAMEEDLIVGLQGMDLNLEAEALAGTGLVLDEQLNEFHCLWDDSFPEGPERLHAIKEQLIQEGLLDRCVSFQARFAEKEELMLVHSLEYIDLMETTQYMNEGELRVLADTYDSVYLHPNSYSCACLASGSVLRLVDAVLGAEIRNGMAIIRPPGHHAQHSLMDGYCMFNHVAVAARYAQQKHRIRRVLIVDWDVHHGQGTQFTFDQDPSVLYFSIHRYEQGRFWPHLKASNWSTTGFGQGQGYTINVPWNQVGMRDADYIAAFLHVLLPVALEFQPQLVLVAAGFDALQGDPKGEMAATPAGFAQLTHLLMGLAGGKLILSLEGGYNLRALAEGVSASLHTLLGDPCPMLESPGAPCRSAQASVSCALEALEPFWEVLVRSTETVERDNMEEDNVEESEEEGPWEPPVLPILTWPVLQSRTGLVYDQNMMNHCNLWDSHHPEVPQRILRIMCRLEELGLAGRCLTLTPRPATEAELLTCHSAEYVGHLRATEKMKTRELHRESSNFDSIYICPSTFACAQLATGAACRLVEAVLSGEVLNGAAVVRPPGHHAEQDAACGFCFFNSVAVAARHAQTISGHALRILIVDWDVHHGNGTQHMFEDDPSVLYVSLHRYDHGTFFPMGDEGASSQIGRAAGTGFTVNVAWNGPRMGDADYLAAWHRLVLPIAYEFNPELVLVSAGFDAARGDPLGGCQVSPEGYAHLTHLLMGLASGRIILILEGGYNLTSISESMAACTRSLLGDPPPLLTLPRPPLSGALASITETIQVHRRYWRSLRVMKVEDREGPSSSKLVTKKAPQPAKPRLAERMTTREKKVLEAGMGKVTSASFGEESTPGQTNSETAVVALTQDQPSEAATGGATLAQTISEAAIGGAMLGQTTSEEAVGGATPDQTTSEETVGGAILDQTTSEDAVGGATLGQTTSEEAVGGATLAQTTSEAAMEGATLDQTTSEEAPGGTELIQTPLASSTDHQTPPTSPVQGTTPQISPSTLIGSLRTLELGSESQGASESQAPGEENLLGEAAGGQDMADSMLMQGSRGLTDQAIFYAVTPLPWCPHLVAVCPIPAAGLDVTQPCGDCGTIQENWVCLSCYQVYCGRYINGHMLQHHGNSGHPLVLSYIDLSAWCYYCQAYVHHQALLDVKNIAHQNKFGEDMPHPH
Protocol: as §1, §2, §3

[4] = biological target: T2, HDAC8 (Homo sapiens, UniProt Q9BY41); assay: biochemical
T2 sequence (Q9BY41 1-377): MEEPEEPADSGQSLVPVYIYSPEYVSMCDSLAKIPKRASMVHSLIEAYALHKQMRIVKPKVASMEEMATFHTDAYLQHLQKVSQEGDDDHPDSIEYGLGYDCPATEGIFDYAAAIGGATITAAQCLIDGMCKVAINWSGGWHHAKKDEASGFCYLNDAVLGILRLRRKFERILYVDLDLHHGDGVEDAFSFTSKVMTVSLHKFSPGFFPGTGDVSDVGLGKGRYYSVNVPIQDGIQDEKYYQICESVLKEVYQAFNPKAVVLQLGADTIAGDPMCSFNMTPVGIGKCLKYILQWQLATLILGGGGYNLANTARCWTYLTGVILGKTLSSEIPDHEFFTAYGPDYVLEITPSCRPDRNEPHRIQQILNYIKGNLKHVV
Protocol: as §1, §2, §3

[5] = Single dose pharmacokinetics of VRx-3996 in patients, serum, cycle 1 day 1; assay type: in vivo, humans; details: human, po
Protocol: Patients enrolled in study were administered oral nanatinostat and valganciclovir at predefined doses. […] 8.1 software.

[6] = tested on: P3HR1 Burkitt's lymphoma cells; assay: Cell death (7AAD staining) of EBV infected cell line, Nstat 3 days then ganciclovir 3 days; assay type: cell-based; details: FIG. 4
Protocol: All test conditions were run in triplicate. Cell death was measured by 7AAD staining.

Sequence of HDAC3/NCOR2 (O15379 whole entry): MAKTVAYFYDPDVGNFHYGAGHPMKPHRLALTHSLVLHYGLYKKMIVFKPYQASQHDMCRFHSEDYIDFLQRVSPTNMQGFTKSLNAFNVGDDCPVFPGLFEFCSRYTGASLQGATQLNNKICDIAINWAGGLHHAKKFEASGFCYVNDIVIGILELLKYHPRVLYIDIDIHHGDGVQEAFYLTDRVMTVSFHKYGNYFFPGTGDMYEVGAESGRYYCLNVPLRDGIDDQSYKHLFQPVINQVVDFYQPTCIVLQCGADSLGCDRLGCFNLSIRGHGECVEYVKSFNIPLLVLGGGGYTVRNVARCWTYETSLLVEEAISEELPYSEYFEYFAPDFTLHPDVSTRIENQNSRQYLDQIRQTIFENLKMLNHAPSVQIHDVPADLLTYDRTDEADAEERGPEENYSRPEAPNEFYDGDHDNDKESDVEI
Sequence of HDAC3/NCOR2 (Q9Y618 395-489 partner limits assumed): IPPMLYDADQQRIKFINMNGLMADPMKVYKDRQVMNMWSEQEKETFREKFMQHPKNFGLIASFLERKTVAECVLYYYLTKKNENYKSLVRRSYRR
Sequence of HDAC2 (Q92769 whole entry): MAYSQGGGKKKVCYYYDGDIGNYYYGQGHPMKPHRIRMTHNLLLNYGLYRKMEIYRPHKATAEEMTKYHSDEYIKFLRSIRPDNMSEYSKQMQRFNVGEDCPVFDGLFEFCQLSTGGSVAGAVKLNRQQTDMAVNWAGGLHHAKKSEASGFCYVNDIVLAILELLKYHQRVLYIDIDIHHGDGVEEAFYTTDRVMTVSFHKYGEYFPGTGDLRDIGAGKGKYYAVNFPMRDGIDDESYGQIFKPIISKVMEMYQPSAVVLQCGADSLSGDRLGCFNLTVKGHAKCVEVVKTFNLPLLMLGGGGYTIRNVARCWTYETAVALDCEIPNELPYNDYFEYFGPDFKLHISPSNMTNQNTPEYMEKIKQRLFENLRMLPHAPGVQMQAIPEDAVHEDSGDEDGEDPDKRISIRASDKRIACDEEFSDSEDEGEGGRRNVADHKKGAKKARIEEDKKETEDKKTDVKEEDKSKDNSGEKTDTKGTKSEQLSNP

O=C(NO)c1cnc(N2CC3C(C2)C3NCc2ccc3cc(F)ccc3n2)nc1 (stereo not shown) [Nstat, 2-(6-{[(6-Fluoroquinolin-2-yl)methyl]amino}-3-azabicyclo[3.1.0]hex-3-yl)-N-hydroxypyrimidine-5-carboxamide]
pIC50 [1]: 7.92
pIC50 [2]: 7.92
pIC50 [3]: 6.35
pIC50 [4]: 6.07
AUC ([5]; Treatment A = 5 mg VRx-3996 p.o. and 450 mg Valganciclovir p.o., single dose, N=1, read-out: AUC, geometric mean): 117 ng·h/mL
half-life ([5]; Treatment A = 5 mg VRx-3996 p.o. and 450 mg Valganciclovir p.o., single dose, N=1, read-out: Half-Life, geometric mean (converted)): 2.18 h
AUC(0-t) ([5]; Treatment A = 5 mg VRx-3996 p.o. and 450 mg Valganciclovir p.o., single dose, N=4, read-out: AUClast, geometric mean): 40.5 ng·h/mL
Cmax ([5]; Treatment A = 5 mg VRx-3996 p.o. and 450 mg Valganciclovir p.o., single dose, N=4, read-out: Cmax, geometric mean): 18.5 ng/mL
Tmax ([5]; Treatment A = 5 mg VRx-3996 p.o. and 450 mg Valganciclovir p.o., single dose, N=4, read-out: Tmax, median (range)): 3 h
AUC ([5]; Treatment B = 10 mg VRx-3996 p.o. and 450 mg Valganciclovir p.o., single dose, N=1, read-out: AUC, geometric mean): 317 ng·h/mL
half-life ([5]; Treatment B = 10 mg VRx-3996 p.o. and 450 mg Valganciclovir p.o., single dose, N=1, read-out: Half-Life, geometric mean (converted)): 1.17 h
AUC(0-t) ([5]; Treatment B = 10 mg VRx-3996 p.o. and 450 mg Valganciclovir p.o., single dose, N=9, read-out: AUClast, geometric mean): 165 ng·h/mL
Cmax ([5]; Treatment B = 10 mg VRx-3996 p.o. and 450 mg Valganciclovir p.o., single dose, N=9, read-out: Cmax, geometric mean): 62.6 ng/mL
Tmax ([5]; Treatment B = 10 mg VRx-3996 p.o. and 450 mg Valganciclovir p.o., single dose, N=9, read-out: Tmax, median (range)): 2 h
AUC ([5]; Treatment C = 10 mg VRx-3996 p.o. and 900 mg Valganciclovir p.o., single dose, N=4, read-out: AUC, geometric mean): 322 ng·h/mL
half-life ([5]; Treatment C = 10 mg VRx-3996 p.o. and 900 mg Valganciclovir p.o., single dose, N=4, read-out: Half-Life, geometric mean (converted)): 1.67 h
AUC(0-t) ([5]; Treatment C = 10 mg VRx-3996 p.o. and 900 mg Valganciclovir p.o., single dose, N=6, read-out: AUClast, geometric mean): 227 ng·h/mL
Cmax ([5]; Treatment C = 10 mg VRx-3996 p.o. and 900 mg Valganciclovir p.o., single dose, N=6, read-out: Cmax, geometric mean): 78.9 ng/mL
Tmax ([5]; Treatment C = 10 mg VRx-3996 p.o. and 900 mg Valganciclovir p.o., single dose, N=6, read-out: Tmax, median (range)): 1 h
half-life ([5]; humans, oral nanatinostat with valganciclovir, read-out: T1/2 (converted)): ~2 h
increase of cytotoxic activity when combined with Ganciclovir ([6]; Nstat 3 days, wash, ganciclovir 3 days): ~40%
increased cytotoxicity with ganciclovir after Nstat removal ([6]; after 3 days of washout): seen even after Nstat removal
